US12115232B2, “Preparation for magnetic resonance diagnostics for oncological diseases, comprising deuterated 3-O-methylglucose, and diagnostic method using said preparation” (SOLVEX LIMITED LIABILITY COMPANY, priority 2017, dated 2024)

Legend:
[1] = tested on: tumor; experiment: Preliminary 2H MRI tumor visualization experiments with glucose derivatives; assay type: in vivo
From the text: The authors of this invention have studied various derivatives of glucose as a potential diagnostic agent. It was discovered that not all glucose derivatives can be used for the diagnostics of oncological diseases through ^2H MRI or ^2H NMR.

[2] = tested on: breast carcinoma 4T1
Method: In the examples below, the MRI scanner Bruker BioSpec BC70/30 USR with the constant field of 7.05 T, equipped with a surface transmitting-and-receiving coil with a diameter of 3 cm and a scan depth of ca. 1 cm was used.
To register deuterium image the FLASH (Fast low angle shot) pulse sequence was used.
For experiments with the broadband excitation the following settings were used: the excitation frequency was determined by ^2H NMR spectrum and was sfo1≈46.1745 MHz, a rectangular excitation pulse with a width of 1300 Hz and a power of 36 dB, the flip angle FA=30°, the repetition time TR=11.8 MS, echo time TE=4.4 msec, a scan area of 10 cm×10 cm, scan matrix, 50×50, slice thickness 3 cm, bandwidth of 12500 Hz, total scan time 10 minutes (1030 averages).
In this example, experiments were conducted on mice Balb/c inoculated with breast carcinoma 4T1 (injection of 5×10^5 cells/60 μl under the left front paw for 10 days before experiment) and in healthy Balb/c mice.
A solution of 20-72 mg of 3-O-CD3-glucose was administered to an animal weighing 20 g was injected intraperitoneally, intravenously or via gavage (intraperitoneal: 0.5 ml of a saline solution; intravenous: 0.2 ml of water; oral: 0.25 ml of a saline solution). After injection, the animal was kept in a separate cage with free access to food and water within specified time. For imaging the animal was immobilized with isoflurane. The surface transmitting-and-receiving coil was fixed on the body of the mouse from the dorsal side in the thoracic region.

| SMILES | tumor visualization by 2H MRI [1] | accumulation in tumor by 2H MRI after intravenous injection ([2]; 20 mg intravenous, 50 minutes, mouse no. 3 (FIG. 9)) | location of agent by 2H MRI after oral administration, late ([2]; 70 mg oral, 100 min (text: 115 min), mouse no. 4 (FIG. 10)) | accumulation in tumor visualized by 2H MRI ([2]; 72 mg intraperitoneal, 20-320 min after administration, mouse no. 2 (FIGS. 5-8)) | 2H MRI signal in control mouse without tumors ([2]; 72 mg intraperitoneal, 40 minutes after administration, mouse no. 1) | valid range of the diagnostic agent doses ([2]; mouse, FIGS. 5-9) |
| --- | --- | --- | --- | --- | --- | --- |
| OCC1OC(O)C(O)C(O)C1O (stereo not drawn) [6,6-D2-glucose] | not possible to accurately visualize the tumor | – | – | – | – | – |
| [2H]C([2H])([2H])O[C@H]1[C@H](O)[C@@H](CO)OC(O)[C@@H]1O (stereo partly drawn) [3-O-CD3-glucose] | – | accumulation of 3-O-CD3-glucose in the tumor | accumulated in tumors | accumulated in the tumor in sufficient concentration to be visualized | missing an area with a strong signal of deuterium | 1-3.5 g per 1 kg of animal weight |
